Where “and” joins values, the source holds several entries; their conditions need not be identical. Equal entries are not always repeated. Inconclusive results and toxic doses are left out.
Test system: L1210 leukemia ip in BDF1 mice, survival T/C
Experiment: NCI In Vivo Anticancer Drug Screen. Data for tumor model L1210 Leukemia (intraperitoneal) in B6D2F1 (BDF1) mice
Conditions: endpoint: mean survival time, higher = longer survival
How it was run: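 In this screen, tumor-bearing mice given compound are compared to those given vehicle, and their survival values are reported as a treated-to-control quotient.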

[1] = dose: 100.0 mg/kg/injection, schedule: Q01DX001 (ip), vehicle: saline
[2] = dose: 200.0 mg/kg/injection, schedule: Q01DX001 (ip), vehicle: saline
[3] = dose: 400.0 mg/kg/injection, schedule: Q01DX001 (ip), vehicle: saline
[4] = dose: 100.0 mg/kg/injection, schedule: Q01DX001 (ip), vehicle: Klucel (hydroxypropylcellulose) (HPC)
[5] = dose: 100.0 mg/kg/injection, schedule: Q04DX003 (ip), vehicle: Klucel (hydroxypropylcellulose) (HPC)
[6] = dose: 200.0 mg/kg/injection, schedule: Q01DX001 (ip), vehicle: Klucel (hydroxypropylcellulose) (HPC)
[7] = dose: 100.0 mg/kg/injection, schedule: Q04DX003 (ip), vehicle: saline with Tween-80
[8] = dose: 200.0 mg/kg/injection, schedule: Q04DX003 (ip), vehicle: Klucel (hydroxypropylcellulose) (HPC)
[9] = dose: 400.0 mg/kg/injection, schedule: Q04DX003 (ip), vehicle: Klucel (hydroxypropylcellulose) (HPC)
[10] = dose: 100.0 mg/kg/injection, schedule: Q01DX009 (ip), vehicle: Klucel (hydroxypropylcellulose) (HPC)
[11] = dose: 200.0 mg/kg/injection, schedule: Q01DX009 (ip), vehicle: Klucel (hydroxypropylcellulose) (HPC)
[12] = dose: 400.0 mg/kg/injection, schedule: Q01DX009 (ip), vehicle: Klucel (hydroxypropylcellulose) (HPC)

SMILES: CCOC(=O)Cc1c[nH]c2ccc(N(CCCl)CCCl)cc12
- T/C (dose: 0.55 mg/kg/injection, schedule: Q01DX009 (ip), vehicle: carboxymethylcellulose (CMC)): 121 % of control
- T/C (dose: 1.5 mg/kg/injection, schedule: Q01DX009 (ip), vehicle: carboxymethylcellulose (CMC)): 151 % of control
- T/C (dose: 2.2 mg/kg/injection, schedule: Q01DX009 (ip), vehicle: other): 152 % of control
- T/C (dose: 3.1 mg/kg/injection, schedule: Q01DX009 (ip), vehicle: carboxymethylcellulose (CMC)): 160 % of control and 177 % of control
- T/C (dose: 3.4 mg/kg/injection, schedule: Q01DX009 (ip), vehicle: other): 152 % of control
- T/C (dose: 4.8 mg/kg/injection, schedule: Q01DX009 (ip), vehicle: carboxymethylcellulose (CMC)): 168 % of control
- T/C (dose: 5.0 mg/kg/injection, schedule: Q01DX009 (ip), vehicle: other): 169 % of control
- T/C (dose: 7.0 mg/kg/injection, schedule: Q01DX009 (ip), vehicle: carboxymethylcellulose (CMC)): 157 % of control
- T/C (dose: 7.0 mg/kg/injection, schedule: Q01DX009 (ip), vehicle: other): 176 % of control
- T/C (dose: 7.3 mg/kg/injection, schedule: Q01DX001 (ip), vehicle: carboxymethylcellulose (CMC)): 120 % of control
- T/C (dose: 7.3 mg/kg/injection, schedule: Q01DX009 (ip), vehicle: carboxymethylcellulose (CMC)): 176 % of control
- T/C (dose: 11.0 mg/kg/injection, schedule: Q01DX001 (ip), vehicle: carboxymethylcellulose (CMC)): 124 % of control
- T/C (dose: 11.0 mg/kg/injection, schedule: Q01DX009 (ip), vehicle: carboxymethylcellulose (CMC)): 168 % of control
- T/C (dose: 11.1 mg/kg/injection, schedule: Q01DX009 (ip), vehicle: carboxymethylcellulose (CMC)): 97 % of control
- T/C (dose: 16.6 mg/kg/injection, schedule: Q01DX001 (ip), vehicle: carboxymethylcellulose (CMC)): 121 % of control
- T/C (dose: 25.0 mg/kg/injection, schedule: Q01DX001 (ip), vehicle: carboxymethylcellulose (CMC)): 166 % of control and 225 % of control
- T/C (dose: 37.5 mg/kg/injection, schedule: Q01DX001 (ip), vehicle: carboxymethylcellulose (CMC)): 94 % of control

SMILES: CCCC(=O)Oc1ccc(C(C)(C)CC(C)(C)C)cc1
- T/C [1]: 94 % of control
- T/C [2]: 98 % of control
- T/C [3]: 100 % of control

SMILES: CCSCC1OC(n2cnc3c(N)nc(F)nc32)C(O)C1O (stereo not drawn)
- T/C (dose: 25.0 mg/kg/injection, schedule: Q01DX001 (ip), vehicle: Klucel (hydroxypropylcellulose) (HPC)): 98 % of control
- T/C (dose: 25.0 mg/kg/injection, schedule: Q01DX009 (ip), vehicle: Klucel (hydroxypropylcellulose) (HPC)): 98 % of control
- T/C (dose: 25.0 mg/kg/injection, schedule: Q04DX003 (ip), vehicle: Klucel (hydroxypropylcellulose) (HPC)): 97 % of control
- T/C (dose: 50.0 mg/kg/injection, schedule: Q01DX001 (ip), vehicle: Klucel (hydroxypropylcellulose) (HPC)): 104 % of control
- T/C (dose: 50.0 mg/kg/injection, schedule: Q01DX009 (ip), vehicle: Klucel (hydroxypropylcellulose) (HPC)): 96 % of control
- T/C (dose: 50.0 mg/kg/injection, schedule: Q04DX003 (ip), vehicle: Klucel (hydroxypropylcellulose) (HPC)): 103 % of control
- T/C [4]: 97 % of control and 102 % of control
- T/C [5]: 92 % of control
- T/C [6]: 86 % of control

SMILES: CCOC(=O)C(C)C(c1ccccc1)c1ccccc1 (stereo not drawn)
- T/C [7]: 92 % of control
- T/C (dose: 200.0 mg/kg/injection, schedule: Q04DX003 (ip), vehicle: saline with Tween-80): 93 % of control
- T/C (dose: 400.0 mg/kg/injection, schedule: Q04DX003 (ip), vehicle: saline with Tween-80): 96 % of control

SMILES: CC12CCC3c4ccc(Cc5ccc([N+](=O)[O-])cc5)cc4CCC3C1CCC2=O (stereo not drawn)
- T/C (dose: 50.0 mg/kg/injection, schedule: Q01DX001 (ip), vehicle: saline): 105 % of control
- T/C [1]: 100 % of control
- T/C [2]: 100 % of control
- T/C [3]: 105 % of control

SMILES: C#CC1(O)CCC2C3CCc4cc(OC)ccc4C3CCC21C (stereo not drawn)
- T/C (dose: 10.0 mg/kg/injection, schedule: Q01DX009 (sc), vehicle: saline with Tween-80): 102 % of control
- T/C (dose: 100.0 mg/kg/injection, schedule: Q04DX003 (sc), vehicle: olive oil, sesame oil, peanut oil): 102 % of control
- T/C (dose: 200.0 mg/kg/injection, schedule: Q01DX009 (sc), vehicle: saline with Tween-80): 98 % of control
- T/C (dose: 200.0 mg/kg/injection, schedule: Q04DX003 (sc), vehicle: olive oil, sesame oil, peanut oil): 102 % of control
- T/C (dose: 400.0 mg/kg/injection, schedule: Q01DX009 (sc), vehicle: saline with Tween-80): 96 % of control
- T/C (dose: 400.0 mg/kg/injection, schedule: Q04DX003 (sc), vehicle: olive oil, sesame oil, peanut oil): 100 % of control

SMILES: NC(Cc1cnc(N=Nc2ccc(C(=O)O)cc2)[nH]1)C(=O)O (stereo not drawn)
- T/C (dose: 50.0 mg/kg/injection, schedule: Q01DX009 (ip), vehicle: saline with Tween-80): 100 % of control
- T/C (dose: 100.0 mg/kg/injection, schedule: Q01DX009 (ip), vehicle: saline with Tween-80): 95 % of control
- T/C (dose: 200.0 mg/kg/injection, schedule: Q01DX009 (ip), vehicle: saline with Tween-80): 103 % of control

SMILES: O=C1NC(=S)NC(=O)C1=Cc1ccncc1
- T/C [1]: 105 % of control
- T/C [2]: 102 % of control
- T/C [3]: 98 % of control

SMILES: Cc1c(N=Nc2ccccc2)c(=O)[nH]n1-c1ccccc1
- T/C [4]: 105 % of control
- T/C [5]: 111 % of control
- T/C [6]: 107 % of control
- T/C [8]: 106 % of control
- T/C (dose: 400.0 mg/kg/injection, schedule: Q01DX001 (ip), vehicle: Klucel (hydroxypropylcellulose) (HPC)): 103 % of control
- T/C [9]: 96 % of control

SMILES: O=C(O)C1C(c2ccccc2)=C(c2ccccc2)c2ccccc21 (stereo not drawn)
- T/C (dose: 25.0 mg/kg/injection, schedule: Q04DX003 (ip), vehicle: saline with Tween-80): 92 % of control
- T/C (dose: 50.0 mg/kg/injection, schedule: Q04DX003 (ip), vehicle: saline with Tween-80): 100 % of control
- T/C [7]: 95 % of control and 103 % of control

SMILES: CCCCCCCCCCCCCCCCN(C)c1ccc([N+](=O)[O-])cc1
- T/C [5]: 94 % of control
- T/C [8]: 96 % of control
- T/C [9]: 96 % of control

SMILES: O=C(Nc1ccc(F)cc1)Nc1ccc(Nc2ccccc2)cc1
- T/C (dose: 100.0 mg/kg/injection, schedule: Q01DX001 (ip), vehicle: carboxymethylcellulose (CMC)): 91 % of control
- T/C (dose: 100.0 mg/kg/injection, schedule: Q01DX009 (ip), vehicle: carboxymethylcellulose (CMC)): 97 % of control
- T/C (dose: 100.0 mg/kg/injection, schedule: Q04DX002 (ip), vehicle: carboxymethylcellulose (CMC)): 93 % of control and 86 % of control
- T/C (dose: 100.0 mg/kg/injection, schedule: Q04DX003 (ip), vehicle: carboxymethylcellulose (CMC)): 88 % of control
- T/C (dose: 200.0 mg/kg/injection, schedule: Q01DX001 (ip), vehicle: carboxymethylcellulose (CMC)): 91 % of control
- T/C (dose: 200.0 mg/kg/injection, schedule: Q01DX009 (ip), vehicle: carboxymethylcellulose (CMC)): 87 % of control
- T/C (dose: 200.0 mg/kg/injection, schedule: Q04DX002 (ip), vehicle: carboxymethylcellulose (CMC)): 98 % of control and 86 % of control
- T/C (dose: 200.0 mg/kg/injection, schedule: Q04DX003 (ip), vehicle: carboxymethylcellulose (CMC)): 93 % of control
- T/C (dose: 400.0 mg/kg/injection, schedule: Q01DX001 (ip), vehicle: carboxymethylcellulose (CMC)): 91 % of control
- T/C (dose: 400.0 mg/kg/injection, schedule: Q01DX009 (ip), vehicle: carboxymethylcellulose (CMC)): 92 % of control and 87 % of control
- T/C (dose: 400.0 mg/kg/injection, schedule: Q04DX002 (ip), vehicle: carboxymethylcellulose (CMC)): 88 % of control
- T/C (dose: 400.0 mg/kg/injection, schedule: Q04DX003 (ip), vehicle: carboxymethylcellulose (CMC)): 88 % of control

SMILES: CC(C)CC(=O)C=C(C(F)(F)F)C(F)(F)F
- T/C (dose: 100.0 mg/kg/injection, schedule: Q01DX001 (ip), vehicle: saline with Tween-80): 91 % of control
- T/C (dose: 200.0 mg/kg/injection, schedule: Q01DX001 (ip), vehicle: saline with Tween-80): 96 % of control
- T/C (dose: 400.0 mg/kg/injection, schedule: Q01DX001 (ip), vehicle: saline with Tween-80): 93 % of control

SMILES: Cc1cc(S(=O)(=O)F)ccc1O
- T/C [10]: 106 % of control
- T/C [11]: 103 % of control
- T/C [12]: 98 % of control

SMILES: O=[N+]([O-])c1ccc(Oc2ccc[n+]([O-])c2)nc1
- T/C [10]: 103 % of control
- T/C [5]: 93 % of control
- T/C [11]: 101 % of control
- T/C [8]: 96 % of control
- T/C [12]: 98 % of control
- T/C [9]: 95 % of control

SMILES: O=C(O)/C=C/c1ccc([N+](=O)[O-])s1
- T/C (dose: 100.0 mg/kg/injection, schedule: Q04DX002 (ip), vehicle: Klucel (hydroxypropylcellulose) (HPC)): 90 % of control
- T/C (dose: 200.0 mg/kg/injection, schedule: Q04DX002 (ip), vehicle: Klucel (hydroxypropylcellulose) (HPC)): 90 % of control

SMILES: Cc1ccc(S(=O)(=O)CCCl)cc1
- T/C [5]: 96 % of control
- T/C [8]: 100 % of control

Source: PubChem BioAssay AID248 (DTP/NCI, 2004)
